Assay results: PubChem BioAssay (NCI)
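Growth conditions: 96-well plates. Treatment: test compound, 48 hours, 5 concentrations. Analysis: linear interpolation between bracketing concentrations; unreached endpoints set to highest concentration. GI50 marks 50% less growth. At the TGI there is no net growth.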

How the values were obtained:
Assay in all cases: growth of human tumour cells (NCI), 48 h
[1] = test system: CAKI-1 renal
[2] = test system: NCI-H522 lung
[3] = test system: HOP-92 NSCLC
[4] = test system: OVCAR-3 ovarian
[5] = test system: LOX IMVI melanoma
[6] = test system: SK-MEL-5 melanoma
[7] = test system: PC-3 prostate
[8] = test system: A549 NSCLC
[9] = test system: COLO 205 colon
[10] = test system: MOLT-4 leukemia
[11] = test system: CCRF-CEM leukemia
[12] = test system: MCF7 breast
[13] = test system: MDA-MB-435
[14] = test system: NCI-H226 lung
[15] = test system: SN12C renal
[16] = test system: SK-MEL-2 melanoma
[17] = test system: U251 CNS
[18] = test system: ACHN renal
[19] = test system: BT-549 breast
[20] = test system: HS 578T breast
[21] = test system: UO-31 renal
[22] = test system: M14 melanoma
[23] = test system: HL-60(TB) leukemia
[24] = test system: TK-10 renal
[25] = test system: HT29 colon
[26] = test system: MALME-3M melanoma
[27] = test system: HCC-2998 colon
[28] = test system: 786-0 renal

## Fc1ccc(Nc2nc(Nc3ccc(-c4nc5ccccc5[nH]4)cc3)c3cn[nH]c3n2)cc1
[1]
  GI50: 1970 nM
  TGI: 5.41 µM
[2]
  GI50: 1610 nM
  TGI: 4.02 µM
[3]
  GI50: 1500 nM
  TGI: 3.19 µM
[4]
  GI50: 1940 nM
  TGI: 4.42 µM
[5]
  GI50: 1790 nM
  TGI: 3.62 µM
[6]
  GI50: 9.94 µM
  TGI: 21.9 µM
[7]
  GI50: 2020 nM
  TGI: 4.53 µM
[8]
  GI50: 2750 nM
  TGI: 6.78 µM
[9]
  GI50: 1750 nM
  TGI: 3.67 µM
[10]
  GI50: 2550 nM
  TGI: 5.63 µM
[11]
  GI50: 2630 nM
  TGI: 6.9 µM
[12]
  GI50: 1740 nM
  TGI: 4.12 µM
[13]
  GI50: 1710 nM
  TGI: 3.23 µM
[14]
  GI50: 2620 nM
  TGI: 7.07 µM
[15]
  GI50: 1990 nM
  TGI: 4.47 µM
[16]
  GI50: 2110 nM
  TGI: 4.95 µM
[17]
  GI50: 2100 nM
  TGI: 4.34 µM
[18]
  GI50: 2050 nM
  TGI: 5.08 µM
[19]
  GI50: 2360 nM
  TGI: 6.4 µM
[20]
  GI50: 2120 nM
  TGI: 5.35 µM
[21]
  GI50: 1620 nM
  TGI: 4.32 µM
[22]
  GI50: 2010 nM
  TGI: 3.95 µM
[23]
  GI50: 2960 nM
  TGI: 6.92 µM
[24]
  GI50: 2290 nM
  TGI: 5.29 µM
[25]
  GI50: 1930 nM
  TGI: 4 µM
[26]
  GI50: 1720 nM
  TGI: 3.51 µM
[27]
  GI50: 1570 nM
  TGI: 3.05 µM
[28]
  GI50: 1630 nM
